The values that follow come from ChEMBL document CHEMBL1129920, “Cyclic homopentapeptides 2. Synthetic modifications of viomycin” (1997).

≈ marks a conversion by molar mass, not a printed value. A value given as a limit tells only on which side of the number the result lay.

Type in all cases: functional
In one experiment the test system is Escherichia coli. As to the kind of experiment: In vitro inhibition of Escherichia coli growth.
The subject of the next experiment is Pasteurella multocida. As to the kind of experiment: In vitro inhibition of Pasteurella multocida growth.
Another experiment has as its system Staphylococcus aureus. Nature of the experiment: In vitro inhibition of MRSA growth.

The term MIC denotes the lowest concentration found to suppress growth. As to `CC(C)(C)c1ccc(COC(=O)NC2CC([C@H]3NC(=O)/C(=C/NC(N)=O)NC(=O)[C@@H](CO)NC(=O)[C@@H](CO)NC(=O)C(NC(=O)C[C@@H](N)CCCN)CNC3=O)N=C(N)N2)cc1` (some centres undefined), the values for the MIC with Escherichia coli and in the experiment on Pasteurella multocida were 25 µg/mL (≈ 28.6 µM) and 12.5 µg/mL (≈ 14.3 µM), respectively.

For the compound `NCCC[C@H](N)CC(=O)NC1CNC(=O)[C@@H](C2CC(NC(=O)OCc3ccc(I)cc3)N=C(N)N2)NC(=O)/C(=C/NC(N)=O)NC(=O)[C@@H](CO)NC(=O)[C@@H](CO)NC1=O` (some centres undefined), the values for the minimum inhibitory concentration (MIC) against Escherichia coli, against Pasteurella multocida and against Staphylococcus aureus were 12.5 µg/mL (≈ 13.2 µM), 3.13 µg/mL (≈ 3.31 µM) and 12.5 µg/mL (≈ 13.2 µM), respectively.

On to `NCCC[C@H](N)CC(=O)NC1CNC(=O)[C@@H](C2CC(NC(=O)OCc3ccccc3)N=C(N)N2)NC(=O)/C(=C/NC(N)=O)NC(=O)[C@@H](CO)NC(=O)[C@@H](CO)NC1=O` (some centres undefined), for which the MIC against Escherichia coli was found to be 50 µg/mL (≈ 61.1 µM); in the experiment on Pasteurella multocida, 25 µg/mL (≈ 30.5 µM).

`COc1ccc(C2CC([C@H]3NC(=O)/C(=C/NC(N)=O)NC(=O)[C@@H](CO)NC(=O)[C@@H](CO)NC(=O)C(NC(=O)C[C@@H](N)CCCN)CNC3=O)N=C(N)N2)cc1OC` (some centres undefined): the minimum inhibitory concentration (MIC) against Escherichia coli and in the experiment with Pasteurella multocida was above 200 µg/mL throughout.

As to `NCCC[C@H](N)CC(=O)NC1CNC(=O)[C@@H](C2CC(NC(=O)Nc3ccc(Cl)c(Cl)c3)N=C(N)N2)NC(=O)/C(=C/NC(=O)Nc2ccc(Cl)c(Cl)c2)NC(=O)[C@@H](CO)NC(=O)[C@@H](CO)NC1=O` (some centres undefined), the MIC worked out at 6.25 µg/mL (≈ 6.14 µM) against Escherichia coli, 6.25 µg/mL (≈ 6.14 µM) against Pasteurella multocida and 25 µg/mL (≈ 24.6 µM) against Staphylococcus aureus.

As to `NCCC[C@H](N)CC(=O)NC1CNC(=O)[C@@H](C2CC(O)N=C(N)N2)NC(=O)/C(=C/NC(=O)Nc2ccc(Cl)c(Cl)c2)NC(=O)[C@@H](CO)NC(=O)[C@@H](CO)NC1=O` (some centres undefined), the MIC against Escherichia coli worked out at 50 µg/mL (≈ 60.2 µM); against Pasteurella multocida it was 3.12 µg/mL (≈ 3.76 µM).

Regarding `NCCC[C@H](N)CC(=O)NC1CNC(=O)[C@@H](C2CC(c3ccc(O)c(O)c3)N=C(N)N2)NC(=O)/C(=C/NC(N)=O)NC(=O)[C@@H](CO)NC(=O)[C@@H](CO)NC1=O` (some centres undefined), the MIC in the experiment with Escherichia coli and in the experiment on Pasteurella multocida was 200 µg/mL (≈ 257 µM) in each case.

In the case of `Cc1ccc(S(=O)(=O)NC2CC([C@H]3NC(=O)/C(=C/NC(N)=O)NC(=O)[C@@H](CO)NC(=O)[C@@H](CO)NC(=O)C(NC(=O)C[C@@H](N)CCCN)CNC3=O)N=C(N)N2)cc1` (some centres undefined), the MIC against Escherichia coli and in the experiment with Pasteurella multocida was 200 µg/mL (≈ 238 µM) throughout.

`NCCC[C@H](N)CC(=O)NC1CNC(=O)[C@@H](C2CC(NC(=O)NCc3cccc(C4CCCCC4)c3)N=C(N)N2)NC(=O)/C(=C/NC(N)=O)NC(=O)[C@@H](CO)NC(=O)[C@@H](CO)NC1=O` (some centres undefined) returned an MIC against Staphylococcus aureus of 12.5 µg/mL (≈ 13.9 µM).

As to `NCCC[C@H](N)CC(=O)NC1CNC(=O)[C@@H](C2CC(c3ccc(O)c(O)c3)N=C(N)N2)NC(=O)/C(=C/NC(=O)Nc2ccc(Cl)c(Cl)c2)NC(=O)[C@@H](CO)NC(=O)[C@@H](CO)NC1=O` (some centres undefined), the minimum inhibitory concentration (MIC) in the experiment on Escherichia coli and with Pasteurella multocida was 12.5 µg/mL (≈ 13.5 µM) throughout.

In the case of `NCCC[C@H](N)CC(=O)NC1CNC(=O)[C@@H](C2CC(NC(=O)OCc3cccc(I)c3)N=C(N)N2)NC(=O)/C(=C/NC(N)=O)NC(=O)[C@@H](CO)NC(=O)[C@@H](CO)NC1=O` (some centres undefined), the minimal inhibitory concentration (MIC) came out at 6.25 µg/mL (≈ 6.62 µM) in the experiment with Escherichia coli, 6.25 µg/mL (≈ 6.62 µM) in the experiment on Pasteurella multocida and 12.5 µg/mL (≈ 13.2 µM) in the experiment with Staphylococcus aureus.

With `COc1ccc(C2CC([C@H]3NC(=O)/C(=C/NC(=O)Nc4ccc(Cl)c(Cl)c4)NC(=O)[C@@H](CO)NC(=O)[C@@H](CO)NC(=O)C(NC(=O)C[C@@H](N)CCCN)CNC3=O)N=C(N)N2)cc1OC` (some centres undefined), the minimum inhibitory concentration (MIC) with Escherichia coli and against Pasteurella multocida was 12.5 µg/mL (≈ 13.1 µM) throughout.

For the compound `NCCC[C@H](N)CC(=O)NC1CNC(=O)[C@@H](C2CC(N[C@H](CS)C(=O)O)N=C(N)N2)NC(=O)/C(=C/NC(=O)Nc2ccc(Cl)c(Cl)c2)NC(=O)[C@@H](CO)NC(=O)[C@@H](CO)NC1=O` (some centres undefined), the MIC against Escherichia coli worked out at 25 µg/mL (≈ 26.8 µM); against Pasteurella multocida, 3.12 µg/mL (≈ 3.34 µM).

On to `NCCC[C@H](N)CC(=O)NC1CNC(=O)[C@@H](C2CC(NC(=O)Nc3ccc(Cl)c(Cl)c3)N=C(N)N2)NC(=O)/C(=C/NC(N)=O)NC(=O)[C@@H](CO)NC(=O)[C@@H](CO)NC1=O` (some centres undefined), for which the figures for the minimum inhibitory concentration (MIC) against Escherichia coli, against Pasteurella multocida and in the experiment on Staphylococcus aureus were 6.25 µg/mL (≈ 7.16 µM), 1.56 µg/mL (≈ 1.79 µM) and 25 µg/mL (≈ 28.6 µM), respectively.

For the compound `NCCC[C@H](N)CC(=O)NC1CNC(=O)[C@@H](C2CC(NC(=O)NCc3ccc(Cl)c(Cl)c3)N=C(N)N2)NC(=O)/C(=C/NC(N)=O)NC(=O)[C@@H](CO)NC(=O)[C@@H](CO)NC1=O` (some centres undefined), the results for the MIC in the experiment on Escherichia coli and against Pasteurella multocida were 12.5 µg/mL (≈ 14.1 µM) and 3.13 µg/mL (≈ 3.53 µM), respectively.

With `NCCC[C@H](N)CC(=O)NC1CNC(=O)[C@@H](C2CC(O)N=C(N)N2)NC(=O)/C(=C/NC(N)=O)NC(=O)[C@@H](CO)NC(=O)[C@@H](CO)NC1=O` (some centres undefined), the MIC in the experiment on Escherichia coli and with Pasteurella multocida was 200 µg/mL (≈ 292 µM) throughout.

Take `NCCC[C@H](N)CC(=O)NC1CNC(=O)[C@@H](C2CC(NC(=O)OCc3ccc(Cl)c(Cl)c3)N=C(N)N2)NC(=O)/C(=C/NC(N)=O)NC(=O)[C@@H](CO)NC(=O)[C@@H](CO)NC1=O` (some centres undefined): the MIC in the experiment on Escherichia coli is 25 µg/mL (≈ 28.2 µM); in the experiment on Pasteurella multocida it was 6.25 µg/mL (≈ 7.04 µM); with Staphylococcus aureus, 3.12 µg/mL (≈ 3.51 µM).

`NCCC[C@H](N)CC(=O)NC1CNC(=O)[C@@H](C2CC(NC(=O)NCc3ccc(C4CCCCC4)cc3)N=C(N)N2)NC(=O)/C(=C/NC(N)=O)NC(=O)[C@@H](CO)NC(=O)[C@@H](CO)NC1=O` (some centres undefined): the MIC in the experiment on Staphylococcus aureus stood at 25 µg/mL (≈ 27.8 µM).

Consider `NCCC[C@H](N)CC(=O)NC1CNC(=O)[C@@H](C2CC(SCCN)NC(N)=N2)NC(=O)/C(=C/NC(=O)Nc2ccc(Cl)c(Cl)c2)NC(=O)[C@@H](CO)NC(=O)[C@@H](CO)NC1=O` (some centres undefined), for which the MIC in the experiment with Escherichia coli stood at 25 µg/mL (≈ 28.1 µM); against Pasteurella multocida, 3.12 µg/mL (≈ 3.51 µM).

On to `CSC[C@@H](NC1CC([C@H]2NC(=O)/C(=C/NC(=O)Nc3ccc(Cl)c(Cl)c3)NC(=O)[C@@H](CO)NC(=O)[C@@H](CO)NC(=O)C(NC(=O)C[C@@H](N)CCCN)CNC2=O)N=C(N)N1)C(=O)O` (some centres undefined), for which the MIC is 25 µg/mL (≈ 26.4 µM) in the experiment with Escherichia coli and 3.12 µg/mL (≈ 3.29 µM) against Pasteurella multocida.

As for `NCCC[C@H](N)CC(=O)NC1CNC(=O)[C@@H](C2CC(NC(=O)OCc3cccc(Cl)c3Cl)N=C(N)N2)NC(=O)/C(=C/NC(N)=O)NC(=O)[C@@H](CO)NC(=O)[C@@H](CO)NC1=O` (some centres undefined), the MIC in the experiment with Escherichia coli worked out at 25 µg/mL (≈ 28.2 µM); against Pasteurella multocida, 3.13 µg/mL (≈ 3.53 µM); against Staphylococcus aureus, 12.5 µg/mL (≈ 14.1 µM).

On to `NCCC[C@H](N)CC(=O)NC1CNC(=O)[C@@H](C2CC(NC(=O)OCc3ccc(Cl)cc3Cl)N=C(N)N2)NC(=O)/C(=C/NC(=O)Nc2ccc(Cl)c(Cl)c2)NC(=O)[C@@H](CO)NC(=O)[C@@H](CO)NC1=O` (some centres undefined), for which the MIC against Escherichia coli was 3.13 µg/mL (≈ 3.03 µM); against Pasteurella multocida, 6.25 µg/mL (≈ 6.05 µM); in the experiment on Staphylococcus aureus, 12.5 µg/mL (≈ 12.1 µM).

Regarding `CC(=O)N(C1CC([C@H]2NC(=O)/C(=C/NC(=O)Nc3ccc(Cl)c(Cl)c3)NC(=O)[C@@H](CO)NC(=O)[C@@H](CO)NC(=O)C(NC(=O)C[C@@H](N)CCCN)CNC2=O)N=C(N)N1)[C@H](CS)C(=O)O` (some centres undefined), the MIC against Escherichia coli worked out at 50 µg/mL (≈ 51.2 µM); against Pasteurella multocida it was 6.25 µg/mL (≈ 6.4 µM).

Consider `NCCC[C@H](N)CC(=O)NC1CNC(=O)[C@@H](C2CC(NC(=O)OCc3ccc(Cl)cc3F)N=C(N)N2)NC(=O)/C(=C/NC(N)=O)NC(=O)[C@@H](CO)NC(=O)[C@@H](CO)NC1=O` (some centres undefined), for which the MIC was found to be 12.5 µg/mL (≈ 14.3 µM) against Escherichia coli and 3.13 µg/mL (≈ 3.59 µM) with Pasteurella multocida.

For `CN[C@H](CC(C)C)C(=O)N[C@H]1C(=O)N[C@@H](CC(N)=O)C(=O)N[C@H]2C(=O)N[C@H]3C(=O)N[C@H](C(=O)N[C@H](C(=O)O)c4cc(O)cc(O)c4-c4cc3ccc4O)[C@H](O)c3ccc(c(Cl)c3)Oc3cc2cc(c3O[C@@H]2O[C@H](CO)[C@@H](O)[C@H](O)[C@H]2O[C@H]2C[C@](C)(N)[C@H](O)[C@H](C)O2)Oc2ccc(cc2Cl)[C@H]1O` [VANCOMYCIN], the minimal inhibitory concentration (MIC) with Staphylococcus aureus was determined as 0.78 µg/mL (≈ 0.538 µM).
